Results reported in patent publication US20110183978A1, “Phenylpyri(mi)dinylazoles” (Bayer CropScience AG, priority 2009, published 2011).
Like-named read-outs stand apart in the source and are kept apart here.

What was measured:
[1] = system: Rhizoctonia solani; assay: Example W: in vivo test on Rhizoctonia solani (sheath blight in rice/protective); conditions: 96 h, rice, protective, 250 ppm active substance, assessed 4 days after inoculation, read-out: % Activity level
Outline: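 Young rice plants sprayed protectively with compound in acetone/alkylaryl polyglycol ether emulsion diluted in water at stated dosage. Inoculated with R. solani hyphae one day later; disease assessed 4 days post-inoculation.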

[2] = system: Sphaerotheca fuliginea; assay: Example D: in vivo test on Sphaerotheca fuliginea (powdery mildew on cucumber); conditions: Podosphaera fuliginea, 288 h, cucumber plants sprayed 24 hours before inoculation, scored after 12 days, read-out: % Wirkungsgrad
Outline: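 Scoring took place 12 days after spore inoculation (100,000 spores/ml, at ca. 20/25° C., 60/70% RH) and was made against plants sprayed without active substance. Inoculation followed by 24 hours a spray of water-diluted acetone/Tween/DMSO compound suspension onto Z10 cotyledon-stage cucumbers.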

[3] = system: Pyrenophora teres; assay: Example E: in vivo test on Pyrenophora teres (barley net blotch disease); conditions: Pyrenophora teres, 288 h, barley plants sprayed 24 hours before inoculation, scored after 12 days, read-out: % Wirkungsgrad
Experimental: In Vivo Test on Pyrenophora Teres (Barley Net Blotch Disease) An aqueous suspension of the active substance was prepared by homogenization of a mixture of acetone/Tween/dimethyl sulphoxide and subsequent dilution with water to the desired concentration. Barley plants (variety: Plaisant) are sown in cultivation dishes on a peat-pozzolanic earth substrate (50/50) at 12° C. and sprayed at the first-leaf stage (10 cm size) with the aqueous suspension described above. As a control, plants are sprayed with an aqueous solution with no active substance. After 24 hours the plants are inoculated by spraying with an aqueous suspension of Pyrenophora teres spores (12,000 spores per ml). The spores are derived from a 12 day-old culture. […] After 12 days they are scored in comparison with the control plants.

[4] = system: Botrytis cinerea; assay: Example B: in vivo test on Botrytis cinerea (grey mould on cucumbers); conditions: cucumber plants sprayed 24 hours before inoculation, scored after 5-7 days, read-out: % Wirkungsgrad
Outline: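 Cucumber plants (Vert petit de Paris) sprayed at cotyledon stage Z11 with aqueous suspension of compound (acetone/Tween/DMSO), then inoculated with spores from 15-day-old culture in gelatine/fructose nutrient solution. Kept 5-7 days at 15-11° C, then scored against untreated sprayed controls.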

[5] = system: Alternaria brassicae; assay: Example C: in vivo test on Alternaria brassicae (leaf spot disease on radishes); conditions: 500 ppm; radish plants sprayed 24 hours before inoculation; scored after 6-7 days
Experimental: In Vivo Test on Alternaria Brassicae (Leaf Spot Disease on Radishes) An aqueous suspension of the active substance was prepared by homogenization of a mixture of acetone/Tween/dimethyl sulphoxide and subsequent dilution with water to the desired concentration. Radish plants (variety: Pernot) are sown in cultivation dishes on a peat-pozzolanic earth substrate (50/50) at 18-20° C. and sprayed at the cotyledon stage with the aqueous suspension described above. As a control, plants are sprayed with an aqueous solution with no active substance. After 24 hours, the plants are inoculated by spraying with an aqueous suspension of Alternaria brassicae spores (40,000 spores per ml). The spores are derived from a 12 to 13 day-old culture. The inoculated radish plants are incubated for 6-7 days at ca. 18° C. in a humid atmosphere. After 6-7 days they are scored in comparison with the control plants.

[6] = system: Pyricularia oryzae; assay: whole plant or invertebrate; format: in vivo; conditions: 120 h, read-out: % Activity level
[7] = system: Fusarium nivale (var. majus); assay: whole plant or invertebrate; format: in vivo; conditions: Microdochium nivale, in Triticum aestivum, 120 h, read-out: % Wirkungsgrad (activity level)
[8] = system: Peronospora parasitica; assay: Example A: in vivo test on Peronospora parasitica (downy mildew on white cabbage); conditions: Hyaloperonospora parasitica, 120 h, cabbage plants sprayed 24 hours before inoculation, scored after 5 days, read-out: % Wirkungsgrad
Outline: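 Protective spray test: inoculation with 50,000 spores/ml P. parasitica suspension followed 24 h after compound application to cotyledon-stage cabbage (variety Eminence). Plants kept moist at about 20 °C for 5 days and then rated versus controls sprayed without active substance.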

[9] = system: Cochliobolus miyabeanus; assay: Example X: in vivo test on Cochliobolus miyabeanus (brown spot disease, rice/protective); conditions: Bipolaris oryzae, 96 h, read-out: % Activity level
[10] = system: Fusarium proliferatum; assay: Example I: production of fumonisin FB1 by Fusarium proliferatum (microtitre plates); format: cell-based; conditions: 120 h
[11] = system: Sphaerotheca fuliginea; assay: Example L: in vivo test on Sphaerotheca fuliginea (powdery mildew on cucumber/protective); conditions: Podosphaera fuliginea, 168 h, cucumber, protective, assessment 7 days after inoculation, read-out: % Wirkungsgrad
Outline: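 Young cucumber plants sprayed at stated dosage with compound in DMF/alkylaryl polyglycol ether emulsifier diluted in water; inoculated with S. fuliginea spores one day later. Kept in greenhouse at 70% relative humidity, 23° C; protective activity assessed 7 days after inoculation.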

[12] = Fusarium proliferatum growth, OD 620, 5 days, read-out: % Inhibition des Pilzwachstums bei 50 μM
[13] = Fusarium proliferatum, 5 days at 20° C., HPLC-MS/MS, read-out: % Inhibition der FB1 produktion bei 50 μM

Row | SMILES | pest or weed control at 250 ppm [1] | pest or weed control at 500 ppm [2] | pest or weed control at 500 ppm [3] | pest or weed control at 500 ppm [4] | % Activity level [5] | pest or weed control at 250 ppm [6] | pest or weed control at 1000 ppm [7] | pest or weed control at 500 ppm [8] | pest or weed control at 250 ppm [9] | inhibition at 50 µM [10, 12] | inhibition at 50 µM [10, 13] | pest or weed control at 500 ppm [11]
1 | CC(C)Cn1cc(-c2ccncc2)c(-c2ccc(F)cc2)n1 [Compound 1] | 100% | 100% | 96% | 100% | 94% | 80% | 92% | 100% | 85% | – | – | –
2 | CC(C)C(=O)Nc1cc(-c2cn(C(C)C)nc2-c2ccc(F)cc2)ccn1 [Compound 84] | 100% | 100% | – | 100% | 75% | 85% | 100% | 100% | 93% | 88% | 100% | 100%
3 | CCC(=O)Nc1cc(-c2cn(C(C)C)nc2-c2ccc(F)cc2)ccn1 [Compound 85] | 97% | 100% | 75% | 100% | – | 80% | 100% | 100% | 90% | 95% | 100% | 100%
4 | CC(C)n1cc(-c2ccnc(NC(=O)C3CC3)c2)c(-c2ccc(F)cc2)n1 [Compound 86] | 100% | 100% | 81% | 100% | 75% | 93% | 100% | 100% | 80% | 96% | 100% | 100%
